We go through five compounds from patent publication US7396839B2, “Crystalline forms of gatifloxacin” (Teva Pharmaceuticals USA, Inc., priority 2002, dated 2008).

Series [1] is described as follows: storage at ambient temperature and pressure (crystalline form conversion). It counts as physicochemical.
For series [2] the following is noted: room temperature; among the forms of U.S. Pat. No. 6,413,969; cited from earlier work.
For series [3] the following is noted: among the forms of U.S. Pat. No. 6,413,969; cited from earlier work.
For series [4] the following is noted: compared with the hemihydrate; cited from earlier work.
The nature of series [5]: heating of the crystalline form at about 50° C. The note with it: heating at about 50° C. It counts as physicochemical.
The mark [6] stands for this setting: prolonged (e.g. 2 months) storage at ambient temperature and pressure.

In the case of `COc1c(N2CCNC(C)C2)c(F)cc2c(=O)c(C(=O)O)cn(C3CC3)c12` (racemic) [form L, (±) 1-cyclopropyl-6-fluoro-1,4-dihydro-8-methoxy-7-(3-methyl-1-piperazinyl)-4-oxo-3-quinolinecarboxylic acid], the “crystalline form after prolonged storage” value in series [1] (setting [6]) is “converts to form Ω”.
Still for that read-out and setting: for `COc1c(N2CCNC(C)C2)c(F)cc2c(=O)c(C(=O)O)cn(C3CC3)c12` (racemic) [form M, (±) 1-cyclopropyl-6-fluoro-1,4-dihydro-8-methoxy-7-(3-methyl-1-piperazinyl)-4-oxo-3-quinolinecarboxylic acid] the value was “converts to form T2RP (hemihydrate)”.
Regarding `COc1c(N2CCNC(C)C2)c(F)cc2c(=O)c(C(=O)O)cn(C3CC3)c12` (stereo not shown) [pentahydrate, gatifloxacin], the aqueous solubility result in series [2] is “lowest”. Besides, in series [3], the thermodynamic stability result is “most thermodynamically stable form”.
Consider `COc1c(N2CCNC(C)C2)c(F)cc2c(=O)c(C(=O)O)cn(C3CC3)c12` (stereo not shown) [sesquihydrate, gatifloxacin], for which the stability in manufacturing entry in series [4] is listed as “more stable”.
For `COc1c(N2CCNC(C)C2)c(F)cc2c(=O)c(C(=O)O)cn(C3CC3)c12` (racemic) [form P, (±) 1-cyclopropyl-6-fluoro-1,4-dihydro-8-methoxy-7-(3-methyl-1-piperazinyl)-4-oxo-3-quinolinecarboxylic acid], in series [1] (prolonged (e.g. 1 month) storage at ambient temperature and pressure), the “crystalline form after prolonged storage” value is recorded as “converts to gatifloxacin sesquihydrate”. Moreover, the “crystalline form after heating” value in series [5] is “results in gatifloxacin form T1”.
